Results on 15 compounds are retold here after ChEMBL document CHEMBL5360552, “Potential RNA-dependent RNA polymerase (RdRp) inhibitors as prospective drug candidates for SARS-CoV-2” (Eur J Med Chem, 2023).

Data set [1] concerns SARS-CoV-2. As to the kind of experiment: Antiviral activity against SARS-CoV-2 infected in african green monkey Vero E6 cells assessed as reduction in viral replication. It is filed as functional, organism-based. The following applies: Severe acute respiratory syndrome coronavirus 2, Vero C1008.
Data set [2] in a line: Cytotoxicity against african green monkey Vero E6 cells assessed as inhibition of cell growth by CCK-8 assay. Format: toxicity, cell-based, Vero C1008. The following applies: chlorocebus sabaeus.
Data set [3] relates to SARS-CoV-2. As to the kind of experiment: Antiviral activity against SARS-CoV-2 infected in human Calu-3 cells pretreated for 1 hrs followed by viral infection for 2 days post treatment by qRT-PCR. Format: functional, organism-based. The following applies: Severe acute respiratory syndrome coronavirus 2, Calu-3. (In general: Real-time PCR tracks product formation cycle by cycle.)

A short description of data set [4]: Cytotoxicity against african green monkey Vero E6 cells assessed as inhibition of cell growth incubated for 4 days by MTS assay. It is filed as toxicity, cell-based, Vero C1008. The following applies: chlorocebus sabaeus, time 4 day. A general note: Formazan colour is commonly taken as a measure of viable cells.
The nature of data set [5]: Cytotoxicity against human Calu-3 cells assessed as inhibition of cell growth incubated for 4 days by MTS assay. Format: toxicity, cell-based. The following applies: time 4 day.
Data set [6] has as its system SARS-CoV-2. Nature of the data set: Antiviral activity against SARS-CoV-2 infected in african green monkey Vero E6 cells assessed as reduction in viral yield at 20 uM incubated for 48 hrs post infection by qRT-PCR relative to control. It is filed as functional, Severe acute respiratory syndrome coronavirus 2. More on the design: scale not given: the % may be the effect or the level left.

Data set [7] concerns SARS-CoV-2. As to the kind of experiment: Antiviral activity against SARS-CoV-2 infected in african green monkey Vero E6 cells pretreated for 1 hrs followed by viral infection for 2 days post treatment by qRT-PCR. Format: functional, organism-based, Severe acute respiratory syndrome coronavirus 2.
Data set [8] has as its system SARS-CoV-2. As to the kind of experiment: Antiviral activity against SARS-CoV-2 infected in human Calu-3 cells assessed as reduction in viral yield incubated for 48 hrs by RT-PCR. As to conditions: Severe acute respiratory syndrome coronavirus 2, Calu-3, 48 h. It is filed as functional, organism-based.
Data set [9] is described as follows: Cytotoxicity against human Calu-3 cells assessed as cell growth inhibition incubated for 4 hrs by XTT assay. It is filed as toxicity, cell-based.
In data set [10] the test system is SARS-CoV-2. As to the kind of experiment: Antiviral activity against SARS-CoV-2 WA1/2020 infected in human Calu-3 cells preincubated for 2 hrs followed by viral infection and measured after 48 hrs by microscopy analysis. Format: functional, organism-based. The following applies: Severe acute respiratory syndrome coronavirus 2, WA1/2020, Calu-3.
Data set [11] in a line: Cytotoxicity against human Calu-3 cells assessed as cell growth inhibition by neutral red cytopathic assay. It is filed as toxicity, cell-based.
A short description of data set [12]: Cytotoxicity against african green monkey Vero 76 cells assessed as cell growth inhibition by neutral red cytopathic assay. It is filed as toxicity, cell-based. As to conditions: chlorocebus sabaeus. (In general: Cytopathic effects are the visible damage that an infection or toxin causes in cultured cells.)
Data set [13] concerns SARS-CoV-2. As to the kind of experiment: Antiviral activity against SARS-CoV-2 WA1/2020 infected in african green monkey Vero E6 cells preincubated for 24 hrs followed by viral infection and measured after 5 day post infection by cytopathic effect assay. Format: functional. The following applies: Severe acute respiratory syndrome coronavirus 2, WA1/2020, Vero C1008, 144 h; time 6 day.

Data set [14] has as its system SARS-CoV-2. Nature of the data set: Antiviral activity against SARS-CoV-2 WA1/2020 infected in african green monkey Vero 76 cells preincubated for 24 hrs followed by viral infection and measured after 3 day post infection by viral yield reduction assay. Format: functional. As to conditions: Severe acute respiratory syndrome coronavirus 2, WA1/2020, Vero 76, 96 h; time 4 day.

The nature of data set [15]: Selectivity index, ratio of CC50 for human Calu-3 cells to EC90 for SARS-CoV-2 infected in human Calu-3 cells. It is filed as toxicity, cell-based. The following applies: read-out: Selectivity Index.
Data set [16] is described as follows: Selectivity index, ratio of CC50 for african green monkey Vero 76 cells to EC90 for SARS-CoV-2 infected in African Green monkey Vero 76 cells. As to conditions: read-out: Selectivity Index. It is filed as toxicity, cell-based.
A short description of data set [17]: Selectivity index, ratio of CC50 for african green monkey Vero 76 cells to EC90 for SARS-CoV-2 infected in African Green monkey Vero 76 cells assessed as reduction in cytopathic effect. It is filed as toxicity, cell-based. As to conditions: read-out: Selectivity Index.
Data set [18] in a line: Cytotoxicity against human Caco-2 cells assessed as cell growth inhibition by neutral red cytopathic assay. Format: toxicity, cell-based.
The test system of data set [19] is SARS-CoV-2. As to the kind of experiment: Antiviral activity against SARS-CoV-2 WA1/2020 infected in human Caco-2 cells preincubated for 24 hrs followed by viral infection and measured after 3 day post infection by viral yield reduction assay. Format: functional. As to conditions: Severe acute respiratory syndrome coronavirus 2, WA1/2020, Caco-2, 96 h; time 4 day.

Data set [20] in a line: Selectivity index, ratio of CC50 for human Caco-2 cells to EC90 for SARS-CoV-2 infected in human Caco-2 cells. The following applies: read-out: Selectivity Index. It is filed as toxicity, cell-based.
Data set [21] has as its target Replicase polyprotein 1ab (Severe acute respiratory syndrome coronavirus 2) (UniProt P0DTD1). Nature of the data set: Inhibition of SARS-CoV-2 RdRp transfected in HEK293T cells at 10 microM incubated for 24 hrs by Gluc-Activity assay relative to control. It is filed as cell-based.
A short description of data set [22]: Cytotoxicity against HEK293T cells assessed as cell growth inhibition incubated for 24 hrs by CCK-8 assay. The following applies: human. It is filed as toxicity, cell-based, HEK-293T.
Data set [23] in a line: Therapeutic index, ratio of CC50 for HEK293T cells to EC50 for inhibition of SARS-CoV-2 RdRp. Format: toxicity. As to conditions: human, read-out: TI.
In data set [24] the test system is SARS-CoV-2. As to the kind of experiment: Antiviral activity against wild type SARS-CoV-2 infected in human Calu-3 cells of organoid assessed as intracellular viral RNA level measured after 48 hrs by qRT-PCR analysis. It is filed as functional, organism-based. The following applies: Severe acute respiratory syndrome coronavirus 2, Calu-3, 48 h.
Data set [25] in a line: Selectivity index, ratio of CC50 for african green monkey Vero E6 cells to EC50 for SARS-CoV-2 infected in African Green monkey Vero E6 cells. Format: toxicity, cell-based, Vero C1008. As to conditions: read-out: Selectivity Index.
A short description of data set [26]: in vitro. As to conditions: human, Calu-3 cells.
Description: Selectivity index, ratio of CC50 for human Calu-3 cells to EC50 for SARS-CoV-2 infected in human Calu-3

For orientation: IC50 means the concentration needed to halve the response being measured. As a reminder, the CC50 is the concentration at which the toxic effect on the cells reaches its halfway point. Consider `CCC(CC)COC(=O)[C@H](C)N[P@](=O)(OC[C@H]1O[C@@](C#N)(c2ccc3c(N)ncnn23)[C@H](O)[C@@H]1O)Oc1ccccc1`, for which the IC50 in data set [1] stood at 7.18 µM. Moreover, in data set [2], the CC50 was greater than 100 µM.

Broadly, the EC50 is the concentration needed to bring the measured effect to its halfway point. In general, EC90 refers to the point of the concentration-response curve where the effect stands at 90%. In the case of `O=c1cc(-c2ccccc2)oc2cc(O)c(O)c(O)c12` [BAICALEIN], in data set [3], the EC50 was 1.2 µM. For the same compound, the values for the CC50 at 96 h in data set [4] and in [5] were 8.6 µM and 91 µM, respectively. In addition, in [6], the Activity is 99.8%. For the same compound, the EC90 in data set [7] (Severe acute respiratory syndrome coronavirus 2, Vero C1008, 48 h, time 2 day) amounted to 7.6 µM.

For the compound `CCN(CC)CCCC(C)Nc1ccnc2cc(Cl)ccc12` (stereo not given) [CHLOROQUINE], in data set [1], the IC50 was 11.6 µM.

Regarding `COC(=O)N[C@H](C(=O)N1CCC[C@H]1c1ncc(-c2ccc(-c3ccc(-c4cnc([C@@H]5CCCN5C(=O)[C@@H](NC(=O)OC)C(C)C)[nH]4)cc3)cc2)[nH]1)C(C)C`, in data set [8], the EC50 was 1.1 µM. In addition, the CC50 at 4 h in [9] is 38 µM.

In turn, `Nc1ncnc2c([C@@H]3N[C@H](CO)[C@@H](O)[C@H]3O)c[nH]c12` had an EC50 in data set [10] of 14.2 µM. Moreover, the CC50 in data set [11] is greater than 50 µM; in data set [12] it was greater than 296 µM; in data set [18], 82.8 µM. In addition, the EC90 in data set [13] was 50.3 µM; in data set [14], 10.9 µM; in [19], 14.2 µM. In addition, the selectivity ratio in data set [15] is greater than 3.5; in data set [16], greater than 27; in [17], 5.8; in [20], 5.8.

For the compound `O=C(O)[C@H]1O[C@@H](Oc2cc3oc(-c4ccccc4)cc(=O)c3c(O)c2O)[C@H](O)[C@@H](O)[C@@H]1O` [BAICALIN], the EC50 came to 8 µM in data set [3] and 9 µM in [7] (Severe acute respiratory syndrome coronavirus 2, Vero C1008). Also, the CC50 at 96 h in [4] and in [5] was greater than 100 µM in each case. Moreover, the Activity in data set [6] was determined as 98%.

Usually inhibition stands for the change of the read-out against control, counted positive when it falls. Take `CC(C)(C)OC(=O)N1CCN(c2ccc3cccc(OCC(=O)NCc4ccccc4)c3n2)CC1`: the inhibition in [21] came out at 95%. In addition, the CC50 at 24 h in [22] is 70.8 µM. Moreover, in [23], the selectivity ratio was 65.5.

As for `CC(C)C(=O)OC[C@H]1O[C@@H](n2cc/c(=N\O)[nH]c2=O)[C@H](O)[C@@H]1O` [MOLNUPIRAVIR], the IC50 in data set [24] was 1.97 µM.

For `CC(C)(C)OC(=O)N[C@@H]1CCN(c2ccc3cccc(OCC(=O)NCc4ccccc4)c3n2)C1`, in [21], the inhibition stood at 74.9%. Moreover, the CC50 at 24 h in data set [22] was 79.4 µM. Besides, in data set [23], the selectivity ratio was determined as 20.3.

As for `CC(C)OC(=O)[C@H](C)N[P@](=O)(OC[C@H]1O[C@@H](n2ccc(=O)[nH]c2=O)[C@](C)(F)[C@@H]1O)Oc1ccccc1` [SOFOSBUVIR], the EC50 in data set [8] worked out at 7.3 µM. Further, the CC50 at 4 h in [9] came to 512 µM.

Regarding `Cc1cccc(C)c1OCC(=O)N[C@@H](Cc1ccccc1)[C@@H](O)C[C@H](Cc1ccccc1)NC(=O)[C@H](C(C)C)N1CCCNC1=O` [LOPINAVIR], the IC50 in data set [1] is 11.5 µM.

For the compound `NC(=O)c1nc(F)c[nH]c1=O`, the selectivity ratio in [25] was 6.46. In addition, the CC50 in data set [2] was greater than 400 µM.

As to `NC(=O)c1ncn([C@@H]2O[C@H](CO)[C@@H](O)[C@H]2O)n1` [RIBAVIRIN], the selectivity ratio in data set [26] is 16. Moreover, in [8], the EC50 amounted to 7.1 µM. Also, the CC50 at 4 h in data set [9] was found to be 160 µM.

Take `COc1ccc(-c2cc(=O)c3c(O)cc(O)c(-c4cc(-c5cc(=O)c6c(O)cc(O)cc6o5)ccc4OC)c3o2)cc1` [ISOGINKGETIN]: the IC50 in [1] stood at 22.8 µM.

With `CC(C)(C)OC(=O)N[C@H]1CCN(c2ccc3cccc(OCC(=O)NCc4ccccc4)c3n2)C1`, the inhibition in data set [21] amounted to 92.8%. The CC50 at 24 h in data set [22] came out at 72.4 µM. For the same compound, in data set [23], the selectivity ratio turned out to be 34.8.
